Results on 58 compounds are retold here after patent publication US5925648A, “Tricyclic N-cyanoimines useful as inhibitors of a farnesyl-protein transferase” (Schering Corporation, priority 1997, dated 1999).

Bounds are passed on as bounds.

The IC50 is the concentration at which inhibition is half-maximal.

One assay concerns the target T1, farnesyl protein transferase (Rattus norvegicus, UniProt Q02293+Q04631).
T1 construct: partially purified rat brain farnesyl protein transferase (FPT); from tissue; host or cells: rat brain
In words: FPT IC50 (inhibition of farnesyl protein transferase, in vitro enzyme assay; Ras-CVLS farnesylation by partially purified rat brain FPT). In kind it is biochemical. On the procedure: 1. In vitro enzyme assays: FPT IC50 (inhibition of farnesyl protein transferase, in vitro enzyme assay) are determined by the methods disclosed in […] or WO 95/10516.
As for `N#CN=C(Nc1ccc2c(c1)COCO2)N1CCC(=C2c3ccc(Cl)cc3CCc3cccnc32)CC1` [Example 10], half-maximal inhibition (IC50) required 18 nM.
The same measure, in the same setting: for `CSC(=NC#N)N1CCC(=C2c3ccc(Cl)cc3CCc3cc(Br)cnc32)CC1` [Example 12] the value was under 410 nM; for `N#CN=C(N1CCOCC1)N1CCC(=C2c3ccc(Cl)cc3CCc3cc(Br)cnc32)CC1` [Example 13], 720 nM.
The same measure, in the same setting: with `CCOC(=NC#N)N1CCC(=C2c3ccc(Cl)cc3CCc3cc(Br)cnc32)CC1` [Example 16] the figure was 54 nM.
Same read-out and setting: with `N#CN=C(NC1CCN(Cc2ccccc2)CC1)N1CCC(=C2c3ccc(Cl)cc3CCc3cc(Br)cnc32)CC1` [Example 22] the figure was 170 nM.
With `N#CN=C(Nc1cccnc1)N1CCC(=C2c3ccc(Cl)cc3CCc3cc(Br)cnc32)CC1` [Example 23], the IC50 was determined as 140 nM.
The compound `N#CN=C(Nc1ccc2c(c1)COCO2)N1CCN(C2c3ccc(Cl)cc3CCc3cc(Br)cnc32)CC1` (stereo not drawn) [Example 24] showed an IC50 of 10 nM.
`N#CN=C(NCCO)N1CCC(=C2c3ccc(Cl)cc3CCc3cc(Br)cnc32)CC1` [Example 27] yielded an IC50 of 17 nM. This IC50 is about 1.7-fold higher than that of the compound before.
On the same count and under the same terms, for `CN1CCN(NC(=NC#N)N2CCC(=C3c4ccc(Cl)cc4CCc4cc(Br)cnc43)CC2)CC1` [Example 31] the value was 260 nM.
`N#CN=C(N1CCCCC1)N1CCC(=C2c3ccc(Cl)cc3CCc3cc(Br)cnc32)CC1` [Example 32] returned an IC50 of 270 nM.
For `N#CN=C(N)N1CCC(=C2c3ccc(Cl)cc3CCc3cc(Br)cnc32)CC1` [Example 33], inhibition was half-maximal at 2800 nM (IC50).
Still for that read-out and setting: with `N#CN=C(Nc1ccc2c(c1)COCO2)N1CCC(C2c3ccc(Cl)cc3C=Cc3cc(Br)cnc32)CC1` (stereo not drawn) [Example 34] the figure was 9600 nM.
Same read-out and setting: for `N#CN=C(NCc1ccncc1)N1CCN(C2c3ccc(Cl)cc3CCc3cc(Br)cnc32)CC1` (stereo not drawn) [Example 43] the value was 11 nM; for `CN(C)CCCNC(=NC#N)N1CCC(=C2c3ccc(Cl)cc3CCc3cc(Br)cnc32)CC1` [Example 45], 74 nM.
`N#CN=C(Nc1ccc2ncccc2c1)N1CCC(=C2c3ccc(Cl)cc3CCc3cc(Br)cnc32)CC1` [Example 46] had an IC50 of 150 nM.
Still for that read-out and setting: with `N#CN=C(Nc1ccc2c(c1)COCO2)N1CCC(=C2c3ccc(Cl)c(Br)c3CCc3cccnc32)CC1` [Example 47] the figure was 14 nM; with `N#C/N=C(\Nc1ccc([N+](=O)[O-])cc1)N1CCC(=C2c3ccc(Cl)cc3CCc3cc(Br)cnc32)CC1` [Example 48], 64 nM; with `N#CN=C(Nc1cc[n+]([O-])cc1)N1CCC(=C2c3ccc(Cl)cc3CCc3cc(Br)cnc32)CC1` [Example 49], 13 nM.
Same read-out and setting: for `Cn1c(NC(=NC#N)N2CCC(=C3c4ccc(Cl)cc4CCc4cc(Br)cnc43)CC2)cc(=O)n(C)c1=O` [Example 50] the value was 300 nM.
On the same count and under the same terms, with `N#CN=C(NCc1ccco1)N1CCC(=C2c3ccc(Cl)cc3CCc3cc(Br)cnc32)CC1` [Example 51] the figure was 73 nM; with `N#CN/C(=N/Cc1ccc2c(c1)OCO2)N1CCC(=C2c3ccc(Cl)cc3CCc3cc(Br)cnc32)CC1` [Example 52], 24 nM; with `N#CN=C(NCc1ccc(N)cc1)N1CCC(=C2c3ccc(Cl)cc3CCc3cc(Br)cnc32)CC1` [Example 53], 87 nM.
The compound `N#CN/C(=N/c1ccncc1)N1CCC(=C2c3ccc(Cl)cc3CCc3cc(Br)cnc32)CC1` [Example 54] gave an IC50 of over 110 nM.
Turning to `N#CN=C(Nc1ccc2c(c1)OCCO2)N1CCC(=C2c3ccc(Cl)cc3CCc3cc(Br)cnc32)CC1` [Example 55], the IC50 stood at 110 nM.
On the same count and under the same terms, for `CSC(=NC#N)N1CCC(=C2c3ccc(Cl)c(Br)c3CCc3cc(Br)cnc32)CC1` [Example 56] the value was 42 nM; for `CS(=O)(=O)c1ccc(N/C(=N\C#N)N2CCC(=C3c4ccc(Cl)cc4CCc4cc(Br)cnc43)CC2)cc1` [Example 59], 87 nM.
Compound `N#CN=C(NCc1ccncc1)N1CCC(=C2c3ccc(Cl)c(Br)c3CCc3cc(Br)cnc32)CC1` [Example 61] displayed an IC50 of 5 nM.
On the same count and under the same terms, for `COc1ccc2[nH]cc(CCNC(=NC#N)N3CCC(=C4c5ccc(Cl)cc5CCc5cc(Br)cnc54)CC3)c2c1` [Example 64] the value was over 950 nM; for `CSC(=NC#N)N1CCC(=C2c3ccc(Cl)c(Br)c3CCc3cc(Br)cnc32)CC1` [Example 66], 14 nM.
Still for that read-out and setting: with `N#CN=C(NCc1ccncc1)N1CCC(C2c3ccc(Cl)c(Br)c3CCc3cc(Br)cnc32)CC1` (stereo not drawn) [Example 67] the figure was 1.7 nM; with `N#CN=C(NCCCN1CCCC1=O)N1CCC(C2c3ccc(Cl)c(Br)c3CCc3cc(Br)cnc32)CC1` (stereo not drawn) [Example 68], 7 nM; with `N#CN=C(NCCOCCO)N1CCC(C2c3ccc(Cl)c(Br)c3CCc3cc(Br)cnc32)CC1` (stereo not drawn) [Example 69], 3.7 nM.
Still for that read-out and setting: for `N#CN=C(NCc1ccc2c(c1)OCO2)N1CCC(=C2c3ccc(Cl)c(Br)c3CCc3cc(Br)cnc32)CC1` [Example 72] the value was over 100 nM.
In turn, `CSC(=NC#N)N1CCC(=C2c3ccc(Cl)cc3CCc3cc(Br)cnc32)CC1` [Example 73] displayed an IC50 of 26 nM.
`N#CN=C(NCc1ccc(S(N)(=O)=O)cc1)N1CCC(=C2c3ccc(Cl)c(Br)c3CCc3cc(Br)cnc32)CC1` [Example 74] registered an IC50 of 15 nM.
For the compound `N#CN=C(NCc1cccnc1)N1CCC(=C2c3ccc(Cl)c(Br)c3CCc3cc(Br)cnc32)CC1` [Example 75], half-maximal inhibition (IC50) was put at 4.8 nM.
Same read-out and setting: for `N#CN=C(NCC1CCNCC1)N1CCC(=C2c3ccc(Cl)c(Br)c3CCc3cc(Br)cnc32)CC1` [Example 76] the value was 4.7 nM.
The same measure, in the same setting: for `N#CN=C(NCC1CCN(C(N)=O)CC1)N1CCC(=C2c3ccc(Cl)c(Br)c3CCc3cc(Br)cnc32)CC1` [Example 77] the value was 4.4 nM; for `N#CN=C(NCc1ccncc1)N1CCC(=C2c3ccc(Cl)cc3CCc3cccnc32)CC1` [Example 78], 64 nM.
Still for that read-out and setting: for `N#CN=C(Nc1ccc(N2CCOCC2)cc1)N1CCC(=C2c3ccc(Cl)c(Br)c3CCc3cc(Br)cnc32)CC1` [Example 80] the value was 38 nM.
Regarding `N#CN=C(NCc1ccc[n+]([O-])c1)N1CCC(=C2c3ccc(Cl)c(Br)c3CCc3cc(Br)cnc32)CC1` [Example 81], half-maximal inhibition (IC50) required 4.6 nM.
Same read-out and setting: with `N#CN=C(c1ccncc1)N1CCC(C2c3ncc(Br)cc3CCc3cc(Cl)cc(Br)c32)CC1` (stereo not drawn) [Example 83] the figure was over 33 nM.

A further assay relates to Ras processing. Nature of the assay: COS IC50, cell-based assay: COS cells activity inhibition of Ras processing. The protocol:
2. Cell-based assay. COS IC50 values refer to the COS cells activity inhibition of Ras processing, are determined by the methods disclosed in […] or WO 95/10516.
In turn, `N#CN=C(Nc1ccc2c(c1)COCO2)N1CCC(=C2c3ccc(Cl)cc3CCc3cccnc32)CC1` [Example 10] registered an IC50 of 250 nM.
`N#CN=C(Nc1ccc2c(c1)COCO2)N1CCC(=C2c3ccc(Cl)cc3CCc3cc(Br)cnc32)CC1` [Example 11] gave an IC50 of 250 nM.
Compound `N#CN=C(Nc1ccccc1)N1CCC(=C2c3ccc(Cl)cc3CCc3cccnc32)CC1` [Example 14] had an IC50 of 2500 nM.
The same measure, in the same setting: for `CCOC(=O)N1CCC(NC(=NC#N)N2CCC(=C3c4ccc(Cl)cc4CCc4cc(Br)cnc43)CC2)CC1` [Example 15] the value was 560 nM; for `CCOC(=NC#N)N1CCC(=C2c3ccc(Cl)cc3CCc3cc(Br)cnc32)CC1` [Example 16], 2300 nM; for `CNC(=NC#N)N1CCC(=C2c3ccc(Cl)cc3CCc3cc(Br)cnc32)CC1` [Example 17], 5000 nM.
The same measure, in the same setting: for `N#CN=C(Nc1ccc2c(c1)OCO2)N1CCC(=C2c3ccc(Cl)cc3CCc3cc(Br)cnc32)CC1` [Example 18] the value was 800 nM; for `N#CN=C(NC1CCCCC1)N1CCC(=C2c3ccc(Cl)cc3CCc3cc(Br)cnc32)CC1` [Example 19], 480 nM; for `CCCCNC(=NC#N)N1CCC(=C2c3ccc(Cl)cc3CCc3cc(Br)cnc32)CC1` [Example 20], 1600 nM.
`N#CN=C(Nc1cccnc1)N1CCC(=C2c3ccc(Cl)cc3CCc3cc(Br)cnc32)CC1` [Example 23] came in with an IC50 of 2400 nM. This IC50 lies about 1.5-fold higher than the previous one.
Still for that read-out and setting: with `N#CN=C(Nc1ccc2c(c1)COCO2)N1CCN(C2c3ccc(Cl)cc3CCc3cc(Br)cnc32)CC1` (stereo not drawn) [Example 24] the figure was under 250 nM.
Same read-out and setting: for `COc1ccc(NC(=NC#N)N2CCC(=C3c4ccc(Cl)cc4CCc4cc(Br)cnc43)CC2)cc1` [Example 25] the value was 270 nM; for `N#CN=C(NCc1ccccn1)N1CCC(=C2c3ccc(Cl)cc3CCc3cc(Br)cnc32)CC1` [Example 26], 750 nM; for `N#CN=C(NCCO)N1CCC(=C2c3ccc(Cl)cc3CCc3cc(Br)cnc32)CC1` [Example 27], 2600 nM.
The same measure, in the same setting: with `N#CN=C(Nc1ccc(F)cc1)N1CCC(=C2c3ccc(Cl)cc3CCc3cc(Br)cnc32)CC1` [Example 29] the figure was 570 nM.
Consider `N#CN=C(NCCc1ccncc1)N1CCC(=C2c3ccc(Cl)cc3CCc3cc(Br)cnc32)CC1` [Example 36], for which half-maximal inhibition (IC50) was put at 280 nM. Against the preceding compound, the IC50 is about 2-fold lower.
On the same count and under the same terms, for `N#CN=C(Nc1ccc(C#N)cc1)N1CCC(=C2c3ccc(Cl)cc3CCc3cc(Br)cnc32)CC1` [Example 37] the value was 280 nM; for `N#CN=C(NCc1cccnc1)N1CCC(=C2c3ccc(Cl)cc3CCc3cc(Br)cnc32)CC1` [Example 41], 700 nM.
Still for that read-out and setting: with `N#CN=C(NCCCn1ccnc1)N1CCC(=C2c3ccc(Cl)cc3CCc3cc(Br)cnc32)CC1` [Example 42] the figure was 4000 nM; with `N#CN=C(NCc1ccc[n+]([O-])c1)N1CCC(=C2c3ccc(Cl)cc3CCc3cc(Br)cnc32)CC1` [Example 60], over 1000 nM.
On the same count and under the same terms, for `N#CN=C(NCc1cc[n+]([O-])cc1)N1CCC(=C2c3ccc(Cl)cc3CCc3cc(Br)cnc32)CC1` [Example 70] the value was 16000 nM.
